Source: paper PMC7144358, “Determination of KD025 (SLx-2119), a Selective ROCK2 Inhibitor, in Rat Plasma by High-Performance Liquid Chromatography-Tandem Mass Spectrometry and Its Pharmacokinetic Application” (Molecules, 2020)
Where two headings read alike, the source gives them in different places. Each block holds one compound with its values, some of them ahead of it.

Legend:
[1] = human, in vivo, po; cited from earlier work
[2] = Stability of KD025 in rat plasma under storage/handling conditions; format: in vitro ADME; settings: for Stability (%), auto-sampler stability (24 h at 4 °C): processed rat plasma sample; for Stability (%), auto-sampler stability (24 h at 4 °C) / Stability (%), freeze-thaw stability (3 cycles) / Stability (%), long-term stability (4 weeks at −20 °C) / Stability (%), short-term stability (4 h at room temperature): n = 3
Description: (§1) The stability of stock solutions of KD025 and IS was assessed by comparing the peak response of freshly prepared methanol/acetonitrile solution with that of the solution stored at room temperature for 4 hours or at −20 °C for 4 weeks of KD025 (200 ng/mL) and IS (250 ng/mL). The stability of QC samples in rat plasma at low, middle, high, and ultra-high concentrations was investigated in terms of short- and long-term stability, post-preparative stability, and freeze-thaw stability. Short-term stability was assessed by holding QC samples at the laboratory condition (room temperature) for 4 h, while QC samples were stored at −20 °C for 4 weeks to evaluate long-term stability. The post-preparative stability of processed samples stored in an autosampler (4 °C) was evaluated after 24 hours. Freeze-thaw stability was tested over three repeated cycles, in which QC samples were frozen at −20 °C and then thawed at room temperature. Peak area ratio changes of < 15% between stored and freshly prepared samples were considered as the criteria for the stability of samples [41].

[3] = system: ROCK2; set-up: method as in PMID 26486225, PMID 21242007; settings: cited from earlier work
[4] = Stability of stock solutions; format: physicochemical; settings: KD025 200 ng/mL, IS 250 ng/mL; for Stock solution stability, concentration as % of fresh samples: room temperature for 4 h; for Stock solution stability: −20 °C for 4 weeks
Description: as §1

[5] = Pharmacokinetic study after single oral and IV administration of KD025 to rats; format: in vivo, Sprague–Dawley rats; settings: rat
Description: The feasibility of the developed LC/MS–MS method was examined by performing pharmacokinetic studies of KD025 in rats. Animal experiments were performed in accordance with the guide for the care and use of laboratory animals issued by the National Institutes of Health, as described previously. All experimental protocols were approved by the Animal Care and Use Committee of Gachon University (No. GIACUC-R2018014, approved on June 20th, 2018). Sprague–Dawley rats (8–9 weeks, 250–300 g, Nara Biotech, South Korea) were provided free access to food and water and maintained under 12 h light/dark cycles to adjust to the laboratory environment for a week before commencing the study. Rats were anesthetized by intramuscular injections (20 mg/kg) of Zoletil® (Vibrac, TX, USA) and cannulated by surgery to the femoral artery with polyethylene tubing (Clay Adams, NJ, USA) filled with heparinized saline (20 IU/mL) for blood sampling. After the rats had recovered from surgery, KD025 in a vehicle mixture (DMSO:Cremophor EL:PEG400:DDW = 5:10:40:50) was administered to rats at a dose of 5 mg/kg and 2 mg/kg for oral and IV administration, respectively. Blood samples (220 μL) were collected at 0 (blank), 1 (IV only), 5, 15, 30, 60, 120, 180, 240, 360, 480 and 1440 (oral only) min after KD025 administration and equal volumes of saline were injected for compensation of fluid loss. Plasma was separated from other components of blood by centrifugation at 14,000 rpm for 15 min at 4 °C and then was stored at −20 °C until analysis.
For sample preparation, 100 μL of IS in acetonitrile solution (250 ng/mL) was added to 50 μL of plasma samples, followed by vortex-mixing in 1 min for deproteinization. Samples were then centrifuged at 14,000 rpm for 15 min at 4 °C, and 100 μL aliquots of the supernatant were collected for analysis, as described in Section 3.2. The plasma peak concentration (Cmax) and time to reach Cmax (Tmax) were directly determined from each individual plasma concentration–time profile. Other pharmacokinetic parameters were calculated using WinNonlin® 3.1 software (Pharsight, Cary, NC, USA) by a non-compartmental method, as described previously. Results are presented as means ± standard deviations.

[6] = set-up: method as in PMID 28389592; settings: 38 patients with psoriasis, oral administration, phase 2; cited from earlier work
[7] = set-up: method as in doi:10.1016/j.bbmt.2018.12.100, doi:10.1182/blood-2019-125986, doi:10.1097/01.HS9.0000564392.13730.a3; settings: 54 patients, phase 2a; cited from earlier work
[8] = rat plasma, UHQC 8000 ng/mL diluted 10 times to 800 ng/mL
[9] = Sprague-Dawley, plasma, IV 2 mg/kg, n = 5
[10] = Sprague-Dawley, plasma, PO 5 mg/kg, n = 5

Stability (%), auto-sampler stability (24 h at 4 °C) ([2]; 1 ng/mL): 112.1 ± 2.0%
Stability (%), auto-sampler stability (24 h at 4 °C) ([2]; 3 ng/mL): 100.2 ± 0.2%
Stability (%), auto-sampler stability (24 h at 4 °C) ([2]; 40 ng/mL): 102.0 ± 1.3%
Stability (%), auto-sampler stability (24 h at 4 °C) ([2]; 400 ng/mL): 98.1 ± 2.1%
Stability (%), auto-sampler stability (24 h at 4 °C) ([2]; 800 ng/mL): 101.1 ± 0.8%
Stability (%), auto-sampler stability (24 h at 4 °C) ([2]; UHQC 8000 ng/mL diluted 10 times to 800 ng/mL): 103.3 ± 3.2%
Short-term stability, peak area ratio vs freshly prepared samples ([2]; rat plasma at room temperature (4 h), range over QC and UHQC concentrations): 92.8–100.5%
Long-term stability, peak area ratio vs freshly prepared samples ([2]; rat plasma at −20 °C (4 weeks), range over QC and UHQC concentrations): 95.8–109.9%
Stability (%), freeze-thaw stability (3 cycles) ([2]; rat plasma, 1 ng/mL): 114.1 ± 1.5%
Stability (%), long-term stability (4 weeks at −20 °C) ([2]; rat plasma, 1 ng/mL): 95.8 ± 3.7%
Stability (%), short-term stability (4 h at room temperature) ([2]; rat plasma, 1 ng/mL): 92.8 ± 5.0%
Stability (%), freeze-thaw stability (3 cycles) ([2]; rat plasma, 3 ng/mL): 108.7 ± 3.4%
Stability (%), long-term stability (4 weeks at −20 °C) ([2]; rat plasma, 3 ng/mL): 104.9 ± 6.0%
Stability (%), short-term stability (4 h at room temperature) ([2]; rat plasma, 3 ng/mL): 93.0 ± 1.3%
Stability (%), freeze-thaw stability (3 cycles) ([2]; rat plasma, 40 ng/mL): 110.1 ± 6.5%
Stability (%), long-term stability (4 weeks at −20 °C) ([2]; rat plasma, 40 ng/mL): 106.3 ± 3.0%
Stability (%), short-term stability (4 h at room temperature) ([2]; rat plasma, 40 ng/mL): 94.0 ± 1.6%
Stability (%), freeze-thaw stability (3 cycles) ([2]; rat plasma, 400 ng/mL): 103.3 ± 3.3%
Stability (%), long-term stability (4 weeks at −20 °C) ([2]; rat plasma, 400 ng/mL): 109.9 ± 2.2%
Stability (%), short-term stability (4 h at room temperature) ([2]; rat plasma, 400 ng/mL): 99.0 ± 0.6%
Stability (%), freeze-thaw stability (3 cycles) ([2]; rat plasma, 800 ng/mL): 109.3 ± 5.3%
Stability (%), long-term stability (4 weeks at −20 °C) ([2]; rat plasma, 800 ng/mL): 106.4 ± 1.1%
Stability (%), short-term stability (4 h at room temperature) ([2]; rat plasma, 800 ng/mL): 93.6 ± 1.8%
Stability (%), freeze-thaw stability (3 cycles) [2, 8]: 114.3 ± 2.2%
Stability (%), long-term stability (4 weeks at −20 °C) [2, 8]: 98.6 ± 0.5%
Stability (%), short-term stability (4 h at room temperature) [2, 8]: 100.5 ± 2.5%
Peak area ratio vs fresh samples after three freeze-thaw cycles ([2]; rat plasma, range over five QC and UHQC concentrations): 103.3–114.3%
Post-preparative stability, peak area ratio ([2]; samples stored in autosampler at 4 °C (24 h), range over QC and UHQC concentrations): 98.1–112.1%
Stock solution stability, concentration as % of fresh samples [4]: 89.6%
Stock solution stability [4]: 95.4%
AUC(0-t) [5, 9]: 872 ng·h/mL
MRT [5, 9]: 0.773 h
clearance [5, 9]: 38.9 ± 6.2 mL/min/kg
half-life [5, 9]: 1.47 ± 0.332 h
Cmax ([5]; Sprague-Dawley, plasma, IV 2 mg/kg, n = 5, C0 estimated by noncompartmental analysis, read-out: Cmax (C0)): 4420 ± 1210 ng/mL
Vd ([5]; Sprague-Dawley, plasma, IV 2 mg/kg, n = 5, read-out: Vss): 1.78 ± 0.287 L/kg
AUC(0-t) [5, 10]: 763 ng·h/mL
MRT [5, 10]: 7.91 h
half-life [5, 10]: 5.89 ± 2.82 h
Tmax ([5]; Sprague-Dawley, plasma, PO 5 mg/kg, n = 5, mean ± SD): 2.2 h
Cmax ([5]; Sprague-Dawley, plasma, PO 5 mg/kg, n = 5, mean ± SD, read-out: Cmax): 128 ± 74.7 ng/mL
AUC(0-inf) ([5]; Sprague-Dawley, plasma, iv, 2 mg/kg, IV 2 mg/kg, n = 5): 812 ng·h/mL
bioavailability ([5]; Sprague-Dawley, plasma, oral, PO 5 mg/kg vs IV 2 mg/kg, AUC∞PO/AUC∞IV × 100): ~37%
AUC(0-inf) ([5]; Sprague-Dawley, plasma, po, 5 mg/kg, PO 5 mg/kg, n = 5): 877 ng·h/mL
AUClast to AUC∞ ratio ([5]; IV 2 mg/kg): 99.2%
AUC∞ /Dose ([5]; IV 2 mg/kg, n = 5): 26.3 ± 5.0 μg∙min/mL/[mg/kg]
AUC∞ ([5]; IV 2 mg/kg, n = 5, 2 mg/kg): 52.7 ± 10.0 µg·min/mL
AUC∞ /Dose ([5]; PO 5 mg/kg, n = 5): 9.7 ± 2.4 μg∙min/mL/[mg/kg]
AUC∞ ([5]; PO 5 mg/kg, n = 5, 5 mg/kg): 48.7 ± 11.8 µg·min/mL
AUClast to AUC∞ ratio ([5]; oral 5 mg/kg): 94.0%
Structure (SMILES): CC(C)NC(=O)COc1cccc(-c2nc(Nc3ccc4[nH]ncc4c3)c3ccccc3n2)c1 [KD025, 2-(3-(4-((1H-Indazol-5-yl)amino)quinazolin-2-yl)phenoxy)-N-isopropylacetamide]
Tolerability [1]: well tolerated and produced no significant adverse events, including cardiovascular side effects
Selectivity for ROCK2 than ROCK1 [3]: 100 fold
Clinical effect in psoriasis [6]: reduced psoriasis area, normalized skin pathology, and down-regulated serum IL-17 and IL-23 cytokines
Tolerability [6]: well tolerated, with no serious side effects
Clinical response in chronic graft-versus-host disease [7]: clinically meaningful responses with little toxicity and reductions in corticosteroid doses

Stock solution stability, concentration as % of fresh samples [4]: 100.0%
Stock solution stability [4]: 91.1%
Structure (SMILES): CC1=C(C(=O)Nc2cc3cn[nH]c3cc2F)C(c2ccc(C(F)(F)F)cc2)CC(=O)N1 (stereo not drawn) [IS]
